ChEMBL document CHEMBL4387711, “Discovery of niclosamide and its O-alkylamino-tethered derivatives as potent antibacterial agents against carbapenemase-producing and/or colistin resistant Enterobacteriaceae isolates” (2019)
Activity calls are given as the source filed them.

Columns and labels:
Type in all cases: functional, organism-based
Klebsiella pneumoniae [1] = test: Antibacterial activity against Klebsiella pneumoniae CECT-997 assessed as inhibition of growth at 50 uM after 18 hrs
Klebsiella pneumoniae [2] = test: Antibacterial activity against colistin-susceptible VIM1/carbapenemase-producing Klebsiella pneumoniae 07 assessed as inhibition of growth at 50 uM after 18 hrs
Klebsiella pneumoniae [3] = test: Antibacterial activity against colistin-resistant VIM1/DHAI/carbapenemase-producing Klebsiella pneumoniae 21 assessed as inhibition of growth at 50 uM after 18 hrs
Klebsiella pneumoniae [4] = test: Antibacterial activity against colistin-susceptible OXA-48/CTX-M-15/carbapenemase-producing Klebsiella pneumoniae 28 assessed as inhibition of growth at 50 uM after 18 hrs
Klebsiella pneumoniae [5] = test: Antibacterial activity against colistin-resistant OXA-48/CTX-M-15/carbapenemase-producing Klebsiella pneumoniae 29 assessed as inhibition of growth at 50 uM after 18 hrs
Klebsiella pneumoniae [6] = test: Antibacterial activity against colistin-susceptible NDM-1/carbapenemase-producing Klebsiella pneumoniae assessed as inhibition of growth at 50 uM after 18 hrs
Escherichia coli = test: Antibacterial activity against colistin-susceptible NDM1/KPC-producing Escherichia coli assessed as inhibition of growth at 50 uM after 18 hrs
Klebsiella aerogenes [7] = test: Antibacterial activity against colistin-resistant Enterobacter aerogenes 3 assessed as inhibition of growth at 50 uM after 18 hrs
Enterobacter cloacae [8] = test: Antibacterial activity against colistin-resistant Enterobacter cloacae 32 assessed as inhibition of growth at 50 uM after 18 hrs
Klebsiella aerogenes [9] = test: Antibacterial activity against colistin-resistant Enterobacter aerogenes 53 assessed as inhibition of growth at 50 uM after 18 hrs
Enterobacter cloacae [10] = test: Antibacterial activity against colistin-resistant Enterobacter cloacae 142 assessed as inhibition of growth at 50 uM after 18 hrs
Enterobacter cloacae [11] = test: Antibacterial activity against colistin-resistant Enterobacter cloacae 190 assessed as inhibition of growth at 50 uM after 18 hrs
Enterobacter cloacae [12] = test: Antibacterial activity against colistin-resistant Enterobacter cloacae 263 assessed as inhibition of growth at 50 uM after 18 hrs
Enterobacter cloacae [13] = test: Antibacterial activity against colistin-resistant Enterobacter cloacae 272 assessed as inhibition of growth at 50 uM after 18 hrs
Enterobacter cloacae [14] = test: Antibacterial activity against colistin-resistant Enterobacter cloacae 280 assessed as inhibition of growth at 50 uM after 18 hrs
Enterobacter cloacae [15] = test: Antibacterial activity against colistin-resistant Enterobacter cloacae 297 assessed as inhibition of growth at 50 uM after 18 hrs

Measured: growth inhibition (GI)

O=C(Nc1ccc([N+](=O)[O-])cc1Cl)c1cc(Cl)ccc1OCCN1CCCCC1
inactive: all assays above

NCCCOc1ccc(Cl)cc1C(=O)Nc1ccc([N+](=O)[O-])cc1Cl
inactive: all assays above

CN1CCC(Oc2ccc(Cl)cc2C(=O)Nc2ccc([N+](=O)[O-])cc2Cl)CC1
inactive: all assays above

O=C(Nc1ccc([N+](=O)[O-])cc1Cl)c1cc(Cl)ccc1OC1CCNCC1
inactive: all assays above

NCCOc1ccc(Cl)cc1C(=O)Nc1ccc([N+](=O)[O-])cc1Cl
inactive: all assays above

CN1CCN(CCOc2ccc(Cl)cc2C(=O)Nc2ccc([N+](=O)[O-])cc2Cl)CC1
inactive: all assays above

O=C(Nc1ccc([N+](=O)[O-])cc1Cl)c1cc(Cl)ccc1OCCN1CCNCC1
inactive: all assays above

CN(C)CCOc1ccc(Cl)cc1C(=O)Nc1ccc([N+](=O)[O-])cc1Cl
inactive: all assays above

O=C(Nc1ccc([N+](=O)[O-])cc1Cl)c1cc(Cl)ccc1OCCN1CCOCC1
inactive: all assays above
